Measured values published in patent US5840720A (priority 1995, dated 1998).
Values joined by “and” are separate entries in the source; they are usually repeats but may differ in a detail not shown here. Identical values can stand only once. Like-named read-outs stand apart in the source and are kept apart here. Where no end group is shown, it is not given here.

Tests used:
[1] = system: isolated guinea-pig ileum; assay: Capsaicin, substance P and carbachol-induced contractility of isolated guinea-pig ileum; conditions: for contraction of ileum smooth muscle: carbachol as control, substance P 0.1 μM; for inhibition of substance P-induced ileum contraction: SP 0.1 μM
Description: FIG. 4 The effects of CAPBZ on response of guinea-pig ileum to capsaicin (10 μM), substance P (SP, 0.1 μM), and carbachol (0.5 μM). […] Thirty minutes following washout, responses to SP, and carbachol were recovered.
C. Antagonist activity of compound on capsaicin and substance Pinduced contractilities of isolated guinea-pig ileum
The abdominal incisions for the guinea pig were made and ilea were isolated and placed in cold (4° C.) Tyrode's solution. 2.5 cm segments of ileum were then trimmed and suspended in an organ bath containing 20 ml low calcium Kreb's solution, aerated with 95% O2 and 5% CO2 at 37° C. As the method reported by M. Takaki et al. (Eur. J. Pharmacol. 174, 5762, 1989).
This effect of capsaicin or substance P was inhibited in the presence of 1.0-100 μM of compound 1 (CAPBZ), concentration-dependently.

[2] = system: capsaicin-induced blood pressure changes; format: in vivo, Wistar rats
[3] = system: isolated guinea-pig bronchi; design: species or system guinea pig (Hartley)
[4] = system: capsaicin-induced hypotensive reflex; format: in vivo, rats
guinea-pig bronchi = conditions: cited from earlier work
[5] = system: capsaicin-induced heart rate changes; format: in vivo, Wistar rats
capsaicin = conditions: cited from earlier work
[6] = system: isolated guinea-pig right and left atria
[7] = system: calcium channel in the isolated guinea-pig atrium; assay: CaCl2-induced chronotropic and inotropic effects in isolated guinea-pig atria; conditions: for inhibition of calcium-induced chronotropic and inotropic effects: pretreatment, increasing CaCl2, right and left atria
Description: Each point represents the mean of six experiments; vertical bars represent the S.E.M.
FIGS. 6A-6B Effect of CAPCNC6 (10 μM) on the positive chronotropic (spontaneously beating right atrium) and inotropic (electrically-driven left atria) effect of increasing Ca^2+ concentrations in guinea pigs. Beating rate and tension were expressed as % of control values. Data represents the mean±S.E.M. (n=7).
D. Effects of compound on the calcium channel in the isolated guinea-pig atrium

[8] = system: isolated guinea-pig atria; conditions: cited from earlier work; for action potential duration: guinea pig atria
[9] = system: neuronal calcium currents; conditions: cited from earlier work
airway = conditions: inhalation; cited from earlier work
[10] = system: isolated guinea-pig trachea; assay: Capsaicin-induced contractility of isolated guinea-pig trachea; design: species or system guinea pig (Hartley); conditions: 0.01-30 μM capsaicin, cumulative
Source text: Each point represents mean±S.E.M of six experiments.
A. Antagonist activity of compounds on capsaicin-induced contractility of isolated guinea-pig bronchi and trachea
Adult guinea pigs (Hartley), weighing 350-450 g, were sacrificed by a blow on the head followed by cervical dislocation. The bronchi and trachea were removed from the lungs, cleaned of all parenchyma, and immediately placed in Kreb's solution. As the method reported by M. G. Belvisi et al. (Eur. J. Pharmacol. 215, 341-4, 1992).

neuronal sodium currents = conditions: cited from earlier work
[11] = system: isolated guinea-pig right and left atrium; assay: hCGRP-induced beating and tension of isolated guinea-pig atria
[12] = A phase, 15 min i.v. infusion 100 μg/kg/min, capsaicin 10 μg/kg i.v., one compartment model
[13] = C phase, 15 min i.v. infusion 100 μg/kg/min, capsaicin 10 μg/kg i.v., one compartment model
[14] = capsaicin 0.01-30 μM cumulative, compound 1 and 3 at 1.0-100 μM, capsazepine 1-10 μM
[15] = pretreatment i.t. 1 nmole, capsaicin i.a. 10 μg/kg, mean±S.E.M., n=6, control (None) -19.6 ± 1.9
[16] = fast phase, 15 min infusion, one compartment model
[17] = slow phase, 15 min infusion, one compartment model
[18] = 0.1-10 μM compound, 1.0 μM capsaicin, concentration-dependent

C[N+](C)(C)CCOC(N)=O [carbachol, reference compound]
contraction of ileum smooth muscle ([1]; capsaicin 10 μM): maximum contraction

Oc1cc2c(cc1O)CN(C(=S)NCCc1ccc(Cl)cc1)CCC2 [Capsazepine, reference compound]
efficacy order of antagonist activities, A effect ([2]; A effect): capsazepine>NVABZ>NVABI | Recovery half-life (t1/2) of capsaicin-induced blood pressure changes, A phase [2, 12]: 2.73 min | efficacy order of antagonist activities, B effect ([2]; B effect): NVABI>capsazepine>NVABZ | Recovery half-life (t1/2) of capsaicin-induced blood pressure changes, B phase ([2]; 15 min i.v. infusion 100 μg/kg/min, capsaicin 10 μg/kg i.v., one compartment model): 2.89 min | efficacy order of antagonist activities, C effect ([2]; C effect): capsazepine>NVABI>NVABZ | Recovery half-life (t1/2) of capsaicin-induced blood pressure changes, C phase [2, 13]: 3.78 min | duration order of antagonist activities ([2]; rat, in vivo): NVABZ>NVABI>capsazepine | recovery of antagonist activity to basal level ([2]; saline infusion after 100 μg/kg/min infusion): recovered to basal level by saline infusion for 30, 45, and 60 minutes gradually | shift of capsaicin-induced contraction in bronchi [3, 14]: shifted rightward | depressor reflex response: capsaicin-induced blood pressure changes after pretreatment [4, 15]: 25.8 ± 3.0 | inhibition of contractile response evoked by capsaicin or electrical field stimulation (guinea-pig bronchi): effective in inhibiting the contractile response | Recovery half-life (t1/2) of capsaicin-induced heart rate changes, fast phase [5, 16]: 1.36 min | Recovery half-life (t1/2) of capsaicin-induced heart rate changes, slow phase [5, 17]: 3/52 | capsaicin antagonism / agonism (capsaicin): competitive capsaicin antagonist

CCCCCCCCC(=O)NCc1cc2c(c(OC)c1)OCN(CCCCCC)C2 [Compound 6, N-[hexylamino-(4-oxymethene, 5-methylene)-3-methoxybenzyl] nonanamide]
inhibition of capsaicin-induced positive inotropic and chronotropic effect [6, 18]: significantly inhibited | inhibition of calcium-induced chronotropic and inotropic effects [7]: could inhibit these calcium effects

CCCCCCCCC(=O)NCc1ccc(OCC(O)CO)c(OC)c1 (centres unmarked) [glyceryl nonivamide]
capsaicin antagonism / agonism (capsaicin): selective capsaicin agonist

substance P: SP (substance P) (RPKPQQFFGLM; ends and bridges not checked; UniProt P20366 58-68, looked up) [reference compound]
contraction of ileum smooth muscle ([1]; capsaicin 10 μM): weaker contractions

CGRP
action potential duration [8]: prolong action potential duration

[N-Allylamino-(4-oxymethylene, 5-methylene)-3-methoxybenzyl] nonanamide [Compound 3]
inhibitory effect in bronchi compared with trachea [3]: more effective in bronchi than in trachea | shift of capsaicin-induced contraction in bronchi [3]: shifted rightward

COc1cc(CNC(=O)CCCC/C=C/C(C)C)ccc1O [Capsaicin]
inhibition of neuronal calcium currents [9]: inhibit neuronal calcium currents | airway resistance (airway): increase airway resistance and leads to bronchoconstriction | contraction of isolated guinea-pig trachea [10]: concentration-dependent increase in contraction | contraction of ileum smooth muscle ([1]; capsaicin 10 μM): weaker contractions | inotropic and chronotropic effect [6]: positive inotropic and chronotropic response | inotropic and chronotropic effect ([6]; listed as capsaicin): positive inotropic and chronotropic effect | contraction of isolated guinea-pig bronchi ([3]; 0.01-30 μM capsaicin, cumulative): concentration-dependent increase in contraction | inhibition of neuronal sodium currents (neuronal sodium currents): inhibit neuronal sodium currents | action potential duration [8]: prolong action potential duration | chronotropic and inotropic effects ([8]; isolated guinea-pig atria): potent positive chronotropic and inotropic effects

CCCCCCCCC(=O)NCc1cc2c(c(OC)c1)OCN(c1ccc(C(=O)OCC)cc1)C2 [Compound 1, N[P-(carboxylic acid ethyl ester)-phenylamine-(4-oxymethylene, 5-methylene)-3-methoxybenzyl] nonanamide]
change of CGRP-induced contractilities after CGRP pretreatment ([11]; after pretreatment with CGRP for 30 minutes): could not change CGRP-induced contractilities | inhibition of hCGRP-induced beating and tension ([11]; right and electrically driven left atrium, FIG. 7 CAPBZ 50 μM): not inhibited | inhibition of substance P-induced ileum contraction ([1]; compound 1.0-100 μM): inhibited | inhibition of substance P-induced ileum contraction ([1]; compound 1.0-100 μM, listed as CAPBZ): concentration-dependently reduction of response | reduction of ileum response to carbachol ([1]; carbachol 0.5 μM, FIG. 4): concentration-dependently reduction of response | inhibition of capsaicin-induced ileum contraction ([1]; compound 1.0-100 μM, capsaicin 10 μM, concentration-dependent): inhibited | recovery of responses to SP and carbachol after washout ([1]; thirty minutes following washout): recovered | inhibition of capsaicin-induced positive inotropic and chronotropic effect [6, 18]: significantly inhibited | effect of pretreatment on capsaicin-induced inotropic and chronotropic response ([6]; pretreatment for 30 min, capsaicin 1 μM, FIGS. 3A-3D): decreased the effect of capsaicin | inhibitory effect in bronchi compared with trachea ([3]; against capsaicin-induced contraction): more effective in bronchi than in trachea | shift of capsaicin-induced contraction in bronchi [3, 14]: shifted rightward | inhibition of calcium-induced chronotropic and inotropic effects [7]: could inhibit these calcium effects

N-[(4-hydroxy, 5-diethylaminomethyl)-3-methyoxybenzyl] nonamide [Compound 11]
duration order of antagonist activities ([2]; rat, in vivo): NVABZ>NVABI>capsazepine | efficacy order of antagonist activities, A effect ([2]; rat, in vivo): capsazepine>NVABZ>NVABI | efficacy order of antagonist activities, B effect ([2]; rat, in vivo): NVABI>capsazepine>NVABZ | efficacy order of antagonist activities, C effect ([2]; rat, in vivo): capsazepine>NVABI>NVABZ | recovery of antagonist activity to basal level ([2]; rat, in vivo): recovered to basal level by saline infusion for 30, 45, and 60 minutes gradually | Recovery half-life (t1/2) of capsaicin-induced blood pressure changes, A phase ([2]; rat, in vivo, iv): 10.67 min | Recovery half-life (t1/2) of capsaicin-induced blood pressure changes, C phase ([2]; rat, in vivo, iv): 21.75 min | effect of pretreatment on capsaicin-induced inotropic and chronotropic response [6]: decreased the effect of capsaicin | inhibition of capsaicin-induced positive inotropic and chronotropic effect [6]: significantly inhibited | depressor reflex response: capsaicin-induced blood pressure changes after pretreatment ([4]; rat, in vivo): 19.2 ± 2.5 | Recovery half-life (t1/2) of capsaicin-induced heart rate changes, fast phase ([5]; rat, in vivo): 11.95 min | Recovery half-life (t1/2) of capsaicin-induced heart rate changes, slow phase ([5]; rat, in vivo): 15.75 min

N[p-ethylketone-phenylamino-(4-oxymethylene, 5-methylene)-3-methoxybenzyl] nonamide [Compound 12]
Recovery half-life (t1/2) of capsaicin-induced blood pressure changes, A phase [2, 12]: 4.30 min | Recovery half-life (t1/2) of capsaicin-induced blood pressure changes, B phase ([2]; 15 min i.v. infusion 100 μg/kg/min, capsaicin 10 μg/kg i.v., one compartment model, listed as NVADA): 9.00 min and 9.01 min | Recovery half-life (t1/2) of capsaicin-induced blood pressure changes, C phase [2, 13]: 4.49 min | inhibition of capsaicin-induced positive inotropic and chronotropic effect [6, 18]: significantly inhibited | depressor reflex response: capsaicin-induced blood pressure changes after pretreatment [4, 15]: -10.6 ± 2.5 | Recovery half-life (t1/2) of capsaicin-induced heart rate changes, fast phase [5, 16]: 5.33 min | Recovery half-life (t1/2) of capsaicin-induced heart rate changes, slow phase [5, 17]: 6.00 min

[Ca+2].[Cl-].[Cl-] [CaCl2, reference compound]
inotropic effect ([7]; cumulative CaCl2, electrically driven left atrium): positive inotropic effect | chronotropic effect ([7]; cumulative CaCl2, spontaneously beating right atrium): positive chronotropic effect
